Several values for one entry are separate records, joined by “and”; a condition that tells them apart may be missing. Equal values may be shown once. Read-outs that look alike come from different tables or passages of the source.
Legend:
human FRs (KB cells) = biological target: T1, human FRs (KB cells) (Homo sapiens, UniProt P15328); experiment: Cell-Based Relative Affinity Assay (competition with 3H-FA on adherent KB cells); type: binding; details: for change of RA with incubation temperature: on ice versus 37° C.; for fold weaker affinity / fold lower RA: versus FA (or the Glu-bearing parent)
T1 construct: endogenous in cells; host or cells: KB cells
Method: Cell culture. Cells were grown continuously as a monolayer using folate-free RPMI medium (FFRPMI) containing 10% heat-inactivated fetal calf serum (HIFCS) at 37° C. in a 5% CO2/95% air-humidified atmosphere with no antibiotics. The HIFCS contained its normal complement of endogenous folates which enabled the cells to sustain growth in this more physiologically-relevant medium (Leamon et al. Proc Natl Acad Sci, USA 1991; 88:5572-6). All cell experiments were performed using FFRPMI containing 10% HIFCS (FFRPMI/HIFCS) as the growth medium unless otherwise specified.
Cell-Based Relative Affinity Assay. The relative affinity of each test article was determined based on a method initially described by Westerhoff et al. Mol Pharm 1995; 48:459-71) with modifications. Briefly, FR-positive KB cells were seeded in 24-well Falcon plates and allowed to form adherent monolayers (>75% confluent) overnight in FFRPMI/HIFCS. […] Cells were incubated for 1 h on ice or in an incubator at 37° C. (as specified in the figure legends) and then rinsed 3 times with 0.5 mL of PBS. Five hundred microliters of 1% sodium dodecyisulfate in PBS were added to each well; after 5 min, cell lysates were collected, transferred to individual vials containing 5 mL of scintillation cocktail, and then counted for radioactivity. […] Relative affinities were defined as described above.
(§1) Relative Affinity Assay Format. The in vitro RA assay described within measures a ligand's ability to compete with FA for binding to FRs. To date, cultured cells have most commonly been used as the FR source. However, herein described is the evaluation of the use of a cell-free, immobilized FR plate system for this assay. This latter method utilized a microtiter plate to which commercially-available bovine milk soluble FBP had been chemically anchored. Similar to the cell-based method, ^3H-FA can compete directly with increasing concentrations of test article for binding to the attached FRs; however, unlike the cell-based method, bound radiolabel can be conveniently “stripped” from the plate by rinsing with a mildly acidic saline solution. […] Likewise, values lower than unity reflect weaker affinity, and values higher than unity reflect stronger affinity.

[1] = tested on: human KB tumor cells xenografts; experiment: Activity against subcutaneous KB tumors; type: in vivo, mice; details: 2 μmol/kg TIW/2 weeks
Method: Effect On Transplanted KB Tumors. Mice are injected, subcutaneously with human KB tumor cells xenografts.

KB cells = experiment: Activity against KB cells (72 h continuous assay); type: cell-based; details: Homo sapiens
[2] = biological target: bovine milk soluble folate binding protein (sFBP) (Bos taurus, UniProt P02702); details: plate-anchored bovine milk sFBP, cold incubation, absence of serum
Text: as §1

Folate Receptor = Folate Receptor (Homo sapiens, UniProt P15328); details: Table 1 footnote (a): Westerhoff et al. 1995; cited from earlier work
[3] = Remaining in solution during the RA assay period; type: physicochemical; details: even at 30 μM, throughout the assay period
Text: It is further appreciated that among the folate analogs, it was interesting to observe the importance of having a charged moiety in close proximity to the Pte group. For example, the RA value increased 90 to>300-fold when a Glu residue was attached to Pte, and N^10-propargyl 5,8-dideazapteroic acid, respectively. […] But, two exceptions were found. […] Therefore, without being hound by theory, it is believed that the lower RA value observed for EC216 may result from steric interference caused by the closer proximity of the drug (DAVLBH) to the Pte unit.

[4] = KB cells, 10% serum (10% serum/FDRPMI)
[5] = Table 1, adherent KB cells, 10% serum, 37° C., FA = 1
[6] = Table 2, adherent KB cells, 10% serum, 37° C., FA = 1

T1 sequence (P15328 25-234): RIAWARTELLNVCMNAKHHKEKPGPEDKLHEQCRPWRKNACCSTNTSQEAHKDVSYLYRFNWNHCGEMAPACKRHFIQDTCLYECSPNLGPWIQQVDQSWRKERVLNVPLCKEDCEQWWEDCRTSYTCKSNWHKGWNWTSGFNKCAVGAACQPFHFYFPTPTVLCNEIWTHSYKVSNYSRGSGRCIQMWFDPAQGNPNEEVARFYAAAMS
Chain of Folate Receptor (P15328 25-234): as above
Chain of bovine milk soluble folate binding protein (sFBP) (P02702 20-234): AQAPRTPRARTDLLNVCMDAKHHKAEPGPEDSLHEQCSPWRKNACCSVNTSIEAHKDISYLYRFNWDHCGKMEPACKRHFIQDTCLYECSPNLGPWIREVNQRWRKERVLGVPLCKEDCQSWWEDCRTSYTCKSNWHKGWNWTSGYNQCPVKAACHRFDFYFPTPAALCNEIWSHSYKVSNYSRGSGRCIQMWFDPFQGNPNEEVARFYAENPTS

Nc1nc2ncc(CNc3ccc(C(=O)N[C@@H](CCC(=O)O)C(=O)O)cc3)nc2c(=O)[nH]1 [Folic Acid]
variation of calculated RA values among serum conditions (human FRs (KB cells); 0 to 100% sera): 13%

C#CCN(Cc1ccc2nc(N)[nH]c(=O)c2c1)c1ccc(C(=O)N[C@@H](CCC(=O)O)C(=O)O)cc1 [CB3717, N10-propargyl-5,8-dideazafolic acid]
complete responses [1]: 0/5
IC50 (KB cells; FIG. 9 Panel A): 5 nM
IC50 (KB cells; FIG. 9 Panel B): 19 nM
RA (relative affinity) (human FRs (KB cells); [4]): 0.148
RA / competitive binding in words (human FRs (KB cells); KB cells, 10% serum, 37° C.): equal to that of FA
Fold Weaker Affinity from FA (human FRs (KB cells); Table 1, 37° C., 10% serum): 1.0
Relative Binding Affinity (37° C.) (human FRs (KB cells); [5]): 1.000

CO[C@@]12[C@H](COC(N)=O)C3=C(C(=O)C(C)=C(NCCSSC[C@H](NC(=O)CC[C@@H](NC(=O)c4ccc(NCc5cnc6nc(N)[nH]c(=O)c6n5)cc4)C(=O)O)C(=O)O)C3=O)N1C[C@@H]1N[C@@H]12 [EC72, Pte-γGlu-Cys-L-MMC]
Fold Weaker Affinity form FA (human FRs (KB cells); Table 2, 37° C., 10% serum): 1.5
Relative Binding Affinity (0° C.) (human FRs (KB cells); Table 2, KB cells, FA = 1): 0.53
Relative Binding Affinity (37° C.) (human FRs (KB cells); [6]): 0.59
change of RA with incubation temperature (human FRs (KB cells); no serum): increased with temperature

CC[C@]1(O)CC2CN(CCc3c([nH]c4ccccc34)[C@@](C(=O)OC)(c3cc4c(cc3OC)N(C)[C@H]3[C@@](O)(C(=O)NNC(=O)OCCSSC[C@H](NC(=O)[C@H](CC(=O)O)NC(=O)[C@H](CC(=O)O)NC(=O)[C@H](CCCNC(=N)N)NC(=O)[C@H](CC(=O)O)NC(=O)CC[C@H](NC(=O)c5ccc(NCc6cnc7nc(N)[nH]c(=O)c7n6)cc5)C(=O)O)C(=O)O)[C@H](O)[C@]5(CC)C=CCN6CC[C@]43[C@@H]65)C2)C1 (stereo partly drawn) [EC145, EC119-L-DAVLBH]
complete responses [1]: 2/5
RA (relative affinity) [2]: 0.12
Fold Weaker Affinity form FA (human FRs (KB cells)): 2.1
Relative Binding Affinity (37° C.) (human FRs (KB cells)): 0.47
fold change of RA with serum versus absence of serum (human FRs (KB cells)): 2.4

Nc1nc2c(c(=O)[nH]1)N(C=O)C(CNc1ccc(C(=O)N[C@@H](CCC(=O)O)C(=O)O)cc1)CN2 (stereo partly drawn) [5-formyl-tetrahydrofolate, 5-formyltetrahydrofolate]
Relative Binding Affinity (0° C.), value in parentheses (Folate Receptor): 0.1
fold weaker affinity / fold lower RA (human FRs (KB cells); KB cells, 10% serum, 37° C.): 125
Fold Weaker Affinity from FA (human FRs (KB cells); Table 1, 37° C., 10% serum): 125
Relative Binding Affinity (0° C.) (human FRs (KB cells); Table 1, KB cells, FA = 1): 0.15
Relative Binding Affinity (37° C.) (human FRs (KB cells); [5]): 0.008

Nc1nc2ncc(CNc3ccc(C(=O)N[C@@H](CCC(=O)NC[C@H](N)C(=O)N[C@@H](CC(=O)O)C(=O)N[C@@H](CS)C(=O)O)C(=O)O)cc3)nc2c(=O)[nH]1 [EC20, Pte-γGlūβDpr-Asp-Cys]
Fold Weaker Affinity form FA (human FRs (KB cells); Table 2, 37° C., 10% serum): 1.1
Relative Binding Affinity (37° C.) (human FRs (KB cells); [6]): 0.92

C#CCN(Cc1ccc2nc(N)[nH]c(=O)c2c1)c1ccc(C(=O)O)cc1 [Des-glutamyl CB3717, N^10-propargyl 5,8-dideazapteroic acid]
fold weaker affinity / fold lower RA (human FRs (KB cells); KB cells, 10% serum, 37° C.): > 300
Fold Weaker Affinity from FA (human FRs (KB cells); Table 1, 37° C., 10% serum): 500
Relative Binding Affinity (37° C.) (human FRs (KB cells); [5]): 0.002

Nc1nc2ncc(CNc3ccc(C(=O)N[C@@H](CCC(=O)NCCNC(=S)Nc4ccc(-c5c6ccc(=O)cc-6oc6cc(O)ccc56)c(C(=O)O)c4)C(=O)O)cc3)nc2c(=O)[nH]1 [EC17, Pte-γGlu-eda-FITC]
Fold Weaker Affinity form FA (human FRs (KB cells); Table 2, 37° C., 10% serum): 1.2
Relative Binding Affinity (0° C.) (human FRs (KB cells); Table 2, KB cells, FA = 1): 0.29
Relative Binding Affinity (37° C.) (human FRs (KB cells); [6]): 0.45
change of RA with incubation temperature (human FRs (KB cells); no serum): increased with temperature

CN(Cc1cnc2nc(N)[nH]c(=N)c2n1)c1ccc(C(=O)N[C@@H](CCC(=O)O)C(=O)O)cc1 [Methotrexate]
Relative Binding Affinity (0° C.), value in parentheses (Folate Receptor): 0.008
fold weaker affinity / fold lower RA (human FRs (KB cells); KB cells, 10% serum, 37° C.): 50
Fold Weaker Affinity from FA (human FRs (KB cells); Table 1, 37° C., 10% serum): 50
Relative Binding Affinity (0° C.) (human FRs (KB cells); Table 1, KB cells, FA = 1): 0.000
Relative Binding Affinity (37° C.) (human FRs (KB cells); [5]): 0.018

C#CCN(Cc1ccc2nc(N)[nH]c(=O)c2c1)c1ccc(C(=O)O)cc1 [EC283]
RA (relative affinity) (human FRs (KB cells); [4]): 0.002

Cc1cc2nc3c(=O)[nH]c(=O)nc-3n(C[C@H](O)[C@H](O)[C@H](O)CO)c2cc1C [riboflavin]
competition with binding of 3H-FA (human FRs (KB cells); 300-fold molar excess, KB cells): not able to compete
RA / competitive binding in words (human FRs (KB cells); KB cells, 10% serum, 37° C.): very low

CN1c2c(nc(N)[nH]c2=O)NCC1CNc1ccc(C(=O)N[C@@H](CCC(=O)O)C(=O)O)cc1 (stereo partly drawn) [5-methyl-tetrahydrofolate, 5-methyltetrahydrofolate]
Relative Binding Affinity (0° C.), value in parentheses (Folate Receptor): (0.35)^(a)
fold weaker affinity / fold lower RA (human FRs (KB cells); KB cells, 10% serum, 37° C.): 14
Fold Weaker Affinity from FA (human FRs (KB cells); Table 1, 37° C., 10% serum): 14
Relative Binding Affinity (37° C.) (human FRs (KB cells); [5]): 0.070

Nc1nc2[nH]cc(CCc3ccc(C(=O)N[C@@H](CCC(=O)O)C(=O)O)cc3)c2c(=O)[nH]1 [Pemetrexed, N-(4-(2-(2-amino-4,7-dihydro-4-oxo-3H-pyrrolo[2,3-D]pyrimidin-5-yl)ethyl)benzoyl]-L-glutamic acid]
Relative Binding Affinity (0° C.), value in parentheses (Folate Receptor): 1.5
Fold Weaker Affinity from FA (human FRs (KB cells); Table 1, 37° C., 10% serum): 500
Relative Binding Affinity (0° C.) (human FRs (KB cells); Table 1, KB cells, FA = 1): 0.26
Relative Binding Affinity (37° C.) (human FRs (KB cells); [5]): 0.002

Nc1nc2ncc(C(=O)O)nc2c(=O)[nH]1 [Pterin-6-carboxylate]
RA / competitive binding in words (human FRs (KB cells); KB cells, 10% serum, 37° C.): failed to block
Relative Binding Affinity (37° C.) (human FRs (KB cells); [5]): 0.000

CC[C@]1(O)CC2CN(CCc3c([nH]c4ccccc34)[C@@](C(=O)OC)(c3cc4c(cc3OC)N(C)[C@H]3[C@@](O)(C(=O)N/N=C(\C)c5ccc(N6C(=O)CC(SC[C@H](NC(=O)[C@H](CC(=O)O)NC(=O)[C@H](CC(=O)O)NC(=O)[C@H](CCCNC(=N)N)NC(=O)[C@H](CC(=O)O)NC(=O)CC[C@H](NC(=O)c7ccc(NCc8cnc9nc(N)[nH]c(=O)c9n8)cc7)C(=O)O)C(=O)O)C6=O)cc5)[C@H](O)[C@]5(CC)C=CCN6CC[C@]43[C@@H]65)C2)C1 (stereo partly drawn) [EC140, EC119-Hyd-DAVLBH]
RA (relative affinity) (human FRs (KB cells); [4]): 0.50
RA (relative affinity) (human FRs (KB cells); KB cells, 37° C., no serum): 0.12
fold change of RA with serum versus absence of serum (human FRs (KB cells); KB cells, serum versus no serum): 4 and 4.1
Fold Weaker Affinity form FA (human FRs (KB cells); Table 2, 37° C., 10% serum): 2.0
Relative Binding Affinity (37° C.) (human FRs (KB cells); [6]): 0.50

Nc1nc2ncc(CNc3ccc(C(=O)O)cc3)nc2c(=O)[nH]1 [Pteroic Acid]
RA (relative affinity) (human FRs (KB cells); KB cells on ice / cold incubation, absence of serum): 0.42
fold weaker affinity than FA (human FRs (KB cells); KB cells on ice, no serum): 2.4
fold weaker affinity / fold lower RA (human FRs (KB cells); KB cells, 10% serum, 37° C., listed as Pte): 91 and 90
RA (relative affinity) (human FRs (KB cells); KB cells, 37° C., no serum): 0.01
fold weaker affinity than FA (human FRs (KB cells); KB cells, 37° C., no serum): 100
Fold Weaker Affinity from FA (human FRs (KB cells); Table 1, 37° C., 10% serum): 91
Relative Binding Affinity (0° C.) (human FRs (KB cells); Table 1, KB cells, FA = 1): 0.42
Relative Binding Affinity (37° C.) (human FRs (KB cells); [5]): 0.011

CC[C@]1(O)CC2CN(CCc3c([nH]c4ccccc34)[C@@](C(=O)OC)(c3cc4c(cc3OC)N(C)[C@H]3[C@@](O)(C(=O)NNC(=O)OCCSSC[C@H](NC(=O)c5ccc(NCc6cnc7nc(N)[nH]c(=O)c7n6)cc5)C(=O)O)[C@H](O)[C@]5(CC)C=CCN6CC[C@]43[C@@H]65)C2)C1 (stereo partly drawn) [EC216, Pte-Cys-L-DAVLBH]
remaining in solution [3]: remain in solution
fold decrease in RA versus EC145 (human FRs (KB cells); KB cells, 10% serum, 37° C., shortened spacer): 10
Fold Weaker Affinity form FA (human FRs (KB cells); Table 2, 37° C., 10% serum): 22
Relative Binding Affinity (37° C.) (human FRs (KB cells); [6]): 0.046
